Experimental data: ChEMBL document CHEMBL1150972, “Biochemical and cellular effects of c-Src kinase-selective pyrido[2, 3-d]pyrimidine tyrosine kinase inhibitors” (Biochem Pharmacol, 2000)
One block for each molecule: values may come before it.

Key:
SW-620 [1] = assay: Inhibition of SW-620 cell proliferation; assay type: functional, cell-based; settings: Homo sapiens
HT-29 [2] = assay: Inhibition of HT-29 clonogenic growth in soft agar with pretreatment; assay type: functional, cell-based; settings: Homo sapiens
NIH3T3 = assay: Inhibition of 3H-thymidine incorporation into NIH3T3 cells; assay type: functional, cell-based; settings: Mus musculus
HT-29 [3] = assay: Inhibition of HT-29 cell proliferation; assay type: functional, cell-based; settings: Homo sapiens
[4] = target: Fibroblast growth factor receptor 1 (Homo sapiens, UniProt P11362); assay: Inhibition of bFGFR
Fibroblast growth factor receptor 1, sequence (P11362 whole entry): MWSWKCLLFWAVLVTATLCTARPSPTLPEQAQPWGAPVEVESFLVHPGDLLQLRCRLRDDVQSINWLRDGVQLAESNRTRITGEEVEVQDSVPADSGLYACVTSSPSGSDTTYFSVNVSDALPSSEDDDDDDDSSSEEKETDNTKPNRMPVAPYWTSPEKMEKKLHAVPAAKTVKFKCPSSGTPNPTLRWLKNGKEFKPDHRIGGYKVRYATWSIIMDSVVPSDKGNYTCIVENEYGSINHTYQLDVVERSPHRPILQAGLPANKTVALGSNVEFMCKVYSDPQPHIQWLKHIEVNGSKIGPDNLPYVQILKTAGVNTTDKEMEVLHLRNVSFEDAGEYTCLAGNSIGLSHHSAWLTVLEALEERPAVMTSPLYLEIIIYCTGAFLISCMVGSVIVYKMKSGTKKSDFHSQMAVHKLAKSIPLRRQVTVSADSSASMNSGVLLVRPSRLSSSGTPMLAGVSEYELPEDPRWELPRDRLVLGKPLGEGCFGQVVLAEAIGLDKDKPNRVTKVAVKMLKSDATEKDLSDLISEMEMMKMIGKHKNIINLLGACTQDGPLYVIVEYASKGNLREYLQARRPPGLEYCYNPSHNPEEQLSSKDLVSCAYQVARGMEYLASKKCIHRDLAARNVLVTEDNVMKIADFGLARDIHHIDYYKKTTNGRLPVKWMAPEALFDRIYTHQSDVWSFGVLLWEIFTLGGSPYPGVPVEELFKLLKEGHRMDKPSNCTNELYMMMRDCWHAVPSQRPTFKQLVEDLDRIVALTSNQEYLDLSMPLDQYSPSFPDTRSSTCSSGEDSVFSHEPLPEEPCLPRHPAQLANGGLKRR

HT-29 [5] = assay: Inhibition of HT-29 clonogenic growth in soft agar without pretreatment; assay type: functional, cell-based; settings: Homo sapiens
[6] = target: Proto-oncogene tyrosine-protein kinase Src (Homo sapiens, UniProt P12931); assay: Inhibition of c-Src
Proto-oncogene tyrosine-protein kinase Src, sequence (P12931 2-536 limits assumed): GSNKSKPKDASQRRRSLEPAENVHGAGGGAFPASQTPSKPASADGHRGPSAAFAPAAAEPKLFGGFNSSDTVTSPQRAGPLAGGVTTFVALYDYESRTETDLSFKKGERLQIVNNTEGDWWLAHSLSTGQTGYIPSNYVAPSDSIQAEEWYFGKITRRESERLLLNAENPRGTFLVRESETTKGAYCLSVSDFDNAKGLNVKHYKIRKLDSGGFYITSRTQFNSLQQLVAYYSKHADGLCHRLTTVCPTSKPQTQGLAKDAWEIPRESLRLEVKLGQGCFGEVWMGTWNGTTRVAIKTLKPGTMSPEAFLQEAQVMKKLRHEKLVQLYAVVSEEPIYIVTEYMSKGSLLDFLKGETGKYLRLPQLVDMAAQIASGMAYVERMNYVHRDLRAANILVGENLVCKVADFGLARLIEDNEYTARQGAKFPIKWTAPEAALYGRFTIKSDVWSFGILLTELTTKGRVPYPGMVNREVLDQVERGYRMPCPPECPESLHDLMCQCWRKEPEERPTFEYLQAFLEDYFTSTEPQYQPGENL

SW-620 [7] = assay: Inhibition of SW-620 clonogenic growth in soft agar without pretreatment; assay type: functional, cell-based; settings: Homo sapiens
HCT-8 [8] = assay: Inhibition of HCT-8 clonogenic growth in soft agar with pretreatment; assay type: functional, cell-based; settings: Homo sapiens
HCT-8 [9] = assay: Inhibition of HCT-8 cell proliferation; assay type: functional, cell-based; settings: Homo sapiens
HCT-8 [10] = assay: Inhibition of HCT-8 clonogenic growth in soft agar without pretreatment; assay type: functional, cell-based; settings: Homo sapiens
Homo sapiens [11] = species on record: Homo sapiens; assay: Selectivity for c-Src compared to PDGFR
[12] = target: Platelet-derived growth factor receptor (Homo sapiens, UniProt P09619+P16234); assay: Inhibition of PDGFR; assay type: protein-complex assay
SW-620 [13] = assay: Inhibition of SW-620 clonogenic growth in soft agar with pretreatment; assay type: functional, cell-based; settings: Homo sapiens
A-431 = assay: Inhibition of 3H-thymidine incorporation into A-431 cells; assay type: functional, cell-based; settings: Homo sapiens
Homo sapiens [14] = species on record: Homo sapiens; assay: Selectivity for c-Src compared to bFGFR
[15] = target: Tyrosine-protein kinase Lck (Homo sapiens, UniProt P06239); assay: Inhibition of Lck
Tyrosine-protein kinase Lck, sequence (P06239 whole entry): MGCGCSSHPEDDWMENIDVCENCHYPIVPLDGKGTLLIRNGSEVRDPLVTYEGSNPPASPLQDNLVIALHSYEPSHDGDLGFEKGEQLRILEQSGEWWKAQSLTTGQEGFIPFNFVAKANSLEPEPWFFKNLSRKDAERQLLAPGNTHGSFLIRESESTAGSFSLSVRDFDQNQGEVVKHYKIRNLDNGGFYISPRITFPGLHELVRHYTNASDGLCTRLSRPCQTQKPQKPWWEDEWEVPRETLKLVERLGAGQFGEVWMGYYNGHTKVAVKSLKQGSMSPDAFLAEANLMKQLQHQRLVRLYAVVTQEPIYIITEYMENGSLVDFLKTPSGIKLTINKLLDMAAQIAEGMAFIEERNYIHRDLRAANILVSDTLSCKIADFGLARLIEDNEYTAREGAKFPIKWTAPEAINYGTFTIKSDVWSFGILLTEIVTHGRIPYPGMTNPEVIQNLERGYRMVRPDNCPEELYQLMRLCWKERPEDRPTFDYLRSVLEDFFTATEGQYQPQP

[16] = target: Epidermal growth factor receptor (Homo sapiens, UniProt P00533)
Epidermal growth factor receptor, sequence (P00533 whole entry): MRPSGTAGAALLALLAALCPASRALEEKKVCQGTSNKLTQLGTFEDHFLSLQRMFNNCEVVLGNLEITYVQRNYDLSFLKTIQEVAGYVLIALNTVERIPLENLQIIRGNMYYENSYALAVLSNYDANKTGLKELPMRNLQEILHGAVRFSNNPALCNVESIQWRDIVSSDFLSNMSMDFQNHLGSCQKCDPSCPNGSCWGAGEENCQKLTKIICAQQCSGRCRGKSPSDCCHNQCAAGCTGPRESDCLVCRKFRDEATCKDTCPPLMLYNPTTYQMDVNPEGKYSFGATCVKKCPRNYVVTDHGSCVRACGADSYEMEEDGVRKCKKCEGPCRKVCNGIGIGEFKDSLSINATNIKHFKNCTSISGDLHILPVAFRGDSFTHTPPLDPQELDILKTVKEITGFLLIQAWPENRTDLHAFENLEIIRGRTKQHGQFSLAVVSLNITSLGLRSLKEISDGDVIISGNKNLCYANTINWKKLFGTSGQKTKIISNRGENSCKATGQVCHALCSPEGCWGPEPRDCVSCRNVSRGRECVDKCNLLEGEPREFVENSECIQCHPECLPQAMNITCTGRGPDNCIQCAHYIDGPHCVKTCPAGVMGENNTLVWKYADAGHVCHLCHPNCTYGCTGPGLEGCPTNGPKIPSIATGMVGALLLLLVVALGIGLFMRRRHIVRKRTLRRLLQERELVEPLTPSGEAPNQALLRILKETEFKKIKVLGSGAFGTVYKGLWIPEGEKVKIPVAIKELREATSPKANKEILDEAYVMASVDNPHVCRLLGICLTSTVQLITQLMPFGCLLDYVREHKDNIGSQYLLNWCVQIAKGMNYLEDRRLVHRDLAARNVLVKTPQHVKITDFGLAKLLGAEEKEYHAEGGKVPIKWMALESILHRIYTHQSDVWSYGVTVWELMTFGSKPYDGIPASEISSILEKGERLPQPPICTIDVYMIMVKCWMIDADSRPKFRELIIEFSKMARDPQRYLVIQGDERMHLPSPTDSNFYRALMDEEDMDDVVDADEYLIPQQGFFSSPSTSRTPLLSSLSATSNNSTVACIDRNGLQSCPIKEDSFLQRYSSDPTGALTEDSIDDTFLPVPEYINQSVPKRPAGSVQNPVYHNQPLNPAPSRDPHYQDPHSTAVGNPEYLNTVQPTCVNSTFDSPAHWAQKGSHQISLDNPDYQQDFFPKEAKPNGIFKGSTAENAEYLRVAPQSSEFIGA

Compound: Cn1c(=O)c(-c2c(Cl)cccc2Cl)cc2cnc(Nc3ccc(N4CCOCC4)cc3)nc21
- IC50 (HT-29 [2]): 1210 nM
- IC50 (NIH3T3): 170 nM
- IC50 [4]: 98.8 nM
- IC50 (HT-29 [5]): 1370 nM
- IC50 [6]: 8.35 nM
- IC50 (SW-620 [7]): 470 nM
- IC50 (HCT-8 [8]): 1380 nM
- IC50 (HCT-8 [10]): 1260 nM
- Ratio (Homo sapiens [11]): 76.2
- IC50 [12]: 636 nM
- IC50 (SW-620 [13]): 530 nM
- IC50 (A-431): 245 nM
- Ratio (Homo sapiens [14]): 11.8
- IC50 [15]: < 5 nM

Compound: CCN(CCOc1ccc(Nc2ncc3cc(-c4c(Cl)cccc4Cl)c(=O)n(C)c3n2)cc1)C(C)=O
- IC50 (SW-620 [1]): 156 nM
- IC50 (HT-29 [2]): 1740 nM
- IC50 (HT-29 [3]): 266 nM
- IC50 [4]: 244 nM
- IC50 (HT-29 [5]): < 5000 nM
- IC50 [6]: 9.03 nM
- IC50 (HCT-8 [8]): > 5000 nM
- IC50 (HCT-8 [9]): 1000 nM
- IC50 (HCT-8 [10]): > 5000 nM
- Ratio (Homo sapiens [11]): 51.2
- IC50 [12]: 463 nM
- Ratio (Homo sapiens [14]): 27
- IC50 [15]: < 5 nM

Compound: Cn1c(=O)c(-c2c(Cl)cccc2Cl)cc2cnc(Nc3ccc(F)cc3)nc21
- IC50 (SW-620 [1]): 619 nM
- IC50 (HT-29 [2]): 1530 nM
- IC50 (HT-29 [3]): 617 nM
- IC50 (HT-29 [5]): 1540 nM
- IC50 (SW-620 [7]): 402 nM
- IC50 (HCT-8 [9]): 662 nM
- IC50 (HCT-8 [10]): 1150 nM
- IC50 (SW-620 [13]): 1550 nM
- IC50 [15]: < 5 nM

The remaining molecules from weak to strong by IC50 (SW-620 [1]), led by results:

- IC50 (SW-620 [1]): 924 nM
- IC50 (HT-29 [2]): 1210 nM
- IC50 (HT-29 [3]): 810 nM
- IC50 [4]: 1250 nM
- IC50 (HT-29 [5]): 1290 nM
- IC50 (SW-620 [7]): 980 nM
- IC50 (HCT-8 [8]): 2520 nM
- IC50 (HCT-8 [9]): 1130 nM
- IC50 (HCT-8 [10]): 1300 nM
- IC50 (SW-620 [13]): 1130 nM
- IC50 [15]: < 5 nM
Compound: CSc1cccc(Nc2ncc3cc(-c4c(Cl)cccc4Cl)c(=O)n(C)c3n2)c1

- IC50 (SW-620 [1]): 660 nM
- IC50 (HT-29 [2]): 750 nM
- IC50 (HT-29 [3]): 579 nM
- IC50 [4]: 451 nM
- IC50 (HT-29 [5]): 1010 nM
- IC50 [6]: 16.3 nM
- IC50 (SW-620 [7]): 360 nM
- IC50 (HCT-8 [8]): 3220 nM
- IC50 (HCT-8 [9]): 1150 nM
- IC50 (HCT-8 [10]): 1260 nM
- Ratio (Homo sapiens [11]): 144
- IC50 [12]: 2340 nM
- IC50 (SW-620 [13]): 460 nM
- IC50 (A-431): 445 nM
- Ratio (Homo sapiens [14]): 27.7
- IC50 [15]: < 5 nM
Compound: CCOc1ccc(Nc2ncc3cc(-c4c(Cl)cccc4Cl)c(=O)n(C)c3n2)cc1
- IC50 (NIH3T3): 382 nM

- IC50 (SW-620 [1]): 285 nM
- IC50 (HT-29 [2]): 464 nM
- IC50 (HT-29 [3]): 461 nM
- IC50 [4]: 934 nM
- IC50 (HT-29 [5]): 1520 nM
- IC50 [6]: 16.8 nM
- IC50 (HCT-8 [8]): 610 nM
- IC50 [16]: 390 nM
- IC50 (HCT-8 [9]): 450 nM
- IC50 (HCT-8 [10]): 260 nM
- Ratio (Homo sapiens [11]): 84.9
- IC50 [12]: 1430 nM
- IC50 (A-431): 215 nM
- Ratio (Homo sapiens [14]): 55.6
- IC50 [15]: < 5 nM
Compound: Cc1cc(Nc2ncc3cc(-c4c(Cl)cccc4Cl)c(=O)n(C)c3n2)ccc1F
- IC50 (NIH3T3): 170 nM
